Experimental findings from PubChem BioAssay (NCI) are described below.

Test in all cases: NCI tumour cell line growth inhibition, 48 h
Assay [1] deals with RXF-631 renal.
Assay [2] relates to DMS 114 small cell lung.
The subject of assay [3] is SNB-78 CNS.
Assay [4] has as its system HOP-18 NSCLC.
The test system of assay [5] is LXFL 529 NSCLC.
The subject of assay [6] is M19-MEL melanoma.
For assay [7], the system named is P388 leukemia.
Assay [8] has as its system SN12K1 renal.
In assay [9] the test system is P388/ADR leukemia.
Assay [10] relates to BT-549 breast.
Assay [11] has as its system MDA-N.

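The compound was tested at five concentrations on cells cultured in 96-well plates, with a 48-hour exposure period. Abbreviation: GI50, concentration required for 50% inhibition of growth. TGI: concentration producing complete growth inhibition.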

In the case of `COc1cc([C@H]2c3cc4c(cc3[C@H](NCc3ccc(F)cc3)C3COC(=O)[C@H]32)OCO4)cc(OC)c1O` (some centres undefined), the TGI in [1] was 14.3 µM; in assay [2], 18.7 µM; in assay [3], 78 µM; in assay [4] it was greater than 100 µM; in assay [5] it was greater than 100 µM; in assay [6] it was 23.4 µM.

For the compound `Nc1nc2c(ncn2C2OC(CO)C(O)C2O)c(=O)[nH]1` (centres undefined), the TGI in assay [2] came to 214 µM; in assay [3], 300 µM; in assay [4], 300 µM; in assay [7], 44.5 µM; in assay [8], 259 µM; in [6], 206 µM. In assay [9], this compound returned a TGI of 80.3 µM.

As for `Cc1cc2nc3c(C(OC4OC(CO)C(O)C(O)C4O)C(O)CO)nn(-c4ccc(F)cc4)c3nc2cc1C` (centres undefined), the TGI in assay [1], in assay [2], in [3], in assay [5] and in assay [6] was greater than 100 µM throughout.

As to `O=C1Cc2c([nH]c3ccccc23)-c2cc(Br)ccc2N1`, the TGI in [1], in assay [2], in assay [3], in assay [4], in assay [5] and in assay [6] was greater than 100 µM throughout.

For the compound `CN(C)CN(C)c1nc(N(C)C)nc(N(C)C)n1`, the TGI in [2], in [3], in assay [4], in assay [5] and in assay [6] was greater than 100 µM in each case.

As for `O=C(O)c1cc2ccc(Cl)cc2c(O)c1C1=CCCCC1`, the TGI was greater than 100 µM in [1]; 63.6 µM in [2]; greater than 100 µM in assay [3]; greater than 100 µM in assay [4]; greater than 100 µM in [5]; greater than 100 µM in assay [6].

As to `COc1ccc(C2C(C(=O)O)=C(COC(C)=O)Oc3cc4c(cc32)OCO4)c(OC)c1` (centres undefined), the TGI in [1], in assay [2], in assay [3], in assay [4] and in assay [6] was greater than 100 µM in each case.

Regarding `c1ccc2c(c1)n1nnnc1c1nnnn21`, the TGI in [1], in assay [2], in [3], in assay [5] and in assay [6] was greater than 100 µM each time.

Consider `CCOC(=O)C(=O)Nc1nc2ccc(OC)cc2s1`, for which the TGI in assay [3], in assay [4], in assay [5] and in [6] was greater than 100 µM each time.

Take `Cc1c(C(=O)/C=C/c2ccc3c(c2)OCO3)[n+](=O)c2ccccc2n1[O-]`: the TGI in [1] is greater than 100 µM; in [2], 48.8 µM; in assay [3] it was greater than 100 µM; in [4] it was greater than 100 µM; in assay [5], 61.9 µM; in assay [6] it was greater than 100 µM.

Turning to `Nc1cccc(C(=O)/C=C/c2ccccc2O)c1`, the TGI in assay [2], in [3], in assay [4], in assay [5] and in [6] was greater than 100 µM in each case.

Regarding `O=C(Cn1ccnc1[N+](=O)[O-])NCc1ccc(F)cc1`, the TGI in assay [1], in assay [2], in assay [4], in [5] and in [6] was greater than 100 µM in each case.

As for `CNC(=O)N(CCCCC(NC(C)=O)C(=O)NCc1ccccc1)Cc1ccccc1` (centres undefined), the TGI in assay [1], in assay [2], in assay [3], in assay [5] and in assay [6] was greater than 100 µM throughout.

Take `Cc1cccc(NC(=O)CSc2nnc(-c3ccc(N=Cc4ccc(Cl)cc4)cc3)o2)c1`: the TGI in [2], in assay [3], in assay [4], in assay [5] and in assay [6] was greater than 100 µM each time.

Consider `CCOC(=O)c1cnc2c(ccc3ncccc32)c1OCC`, for which the TGI in [1], in assay [2], in assay [3], in assay [4], in assay [5] and in assay [6] was greater than 100 µM each time.

Consider `CCOc1ccc(N=Nc2c(-c3ccccc3)nn(C(=O)CC(=O)Nc3ccccc3Cl)c2-c2ccccc2)cc1`, for which the TGI in assay [2], in assay [3], in assay [4], in [5] and in [6] was greater than 100 µM throughout.

Take `COc1cc2ccc(CC(=O)O)cc2cc1OC`: the TGI in assay [1], in assay [2], in [3], in assay [4], in assay [5] and in assay [6] was greater than 100 µM each time.

As for `CN(C)CCC(/C=C/c1ccccc1)=N\Nc1c(F)c(F)c(F)c(F)c1F`, the TGI in assay [2], in assay [3], in assay [4], in assay [5] and in assay [6] was greater than 100 µM throughout.

On to `Cc1ccccc1NC(=O)C(=O)CC(=O)c1sc(-n2nc(-c3ccccc3)cc2-c2ccccc2)nc1C`, for which the TGI in assay [1], in assay [2], in assay [3], in [5] and in assay [6] was greater than 100 µM in each case.

For the compound `CN(C)CC(=O)N1CCc2c([nH]c3ccccc23)C1c1cccnc1` (centres undefined), the TGI in assay [1] is greater than 100 µM; in [2] it was greater than 100 µM; in assay [3] it was greater than 100 µM; in assay [4], greater than 100 µM; in assay [5] it was greater than 100 µM; in assay [10], 77.4 µM. The compound further had a TGI in [6] greater than 100 µM. Besides, the GI50 in [10] was 12.9 µM.

With `O=C(Nc1c(Cl)cc([N+](=O)[O-])cc1Cl)C(=O)C(C(=O)c1ccncc1)C1OC(=O)c2ccccc21` (centres undefined), the TGI in [1], in [2], in [3], in [4], in assay [5] and in [6] was greater than 100 µM throughout.

With `Cc1cc(N(CCC#N)CCC#N)ccc1/C=C1N=C(/C=C\c2ccccc2)N(c2ccc(C(=O)O)cc2)C\1=O`, the TGI in assay [1], in assay [2], in [3], in [4], in assay [5] and in assay [6] was greater than 100 µM throughout.

For the compound `NC(=O)N1N=C2c3ccccc3OC[C@H]2[C@@H]1c1ccccc1`, the TGI in assay [2] was 34.2 µM; in assay [3], greater than 95.3 µM; in [4], greater than 100 µM; in assay [5], greater than 100 µM; in assay [6] it was greater than 100 µM.

Take `Cc1nc(Nc2ccc(Cl)c(Cl)c2)sc1C(/C=C/c1ccc2c(c1)OCO2)=N/Nc1ccc([N+](=O)[O-])cc1[N+](=O)[O-]`: the TGI in assay [11] was greater than 100 µM; in [2], greater than 100 µM; in assay [3], 25.9 µM; in assay [4] it was greater than 100 µM; in [5] it was greater than 100 µM; in [10] it was greater than 100 µM. Further, the TGI in [6] is greater than 100 µM.
